# Target: T1, Ubiquitin-conjugating enzyme E2 N (Homo sapiens, UniProt P61088)
# T1 sequence (P61088 whole entry): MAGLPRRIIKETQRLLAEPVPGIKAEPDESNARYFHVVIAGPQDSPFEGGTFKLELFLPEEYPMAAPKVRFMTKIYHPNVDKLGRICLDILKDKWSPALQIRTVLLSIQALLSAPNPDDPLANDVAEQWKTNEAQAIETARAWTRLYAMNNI
# Assay: UBC13 polyubiquitination inhibitor potency, dose response, biochemical, TR-FRET, reconfirmation (AID 493182)
row,Compound,IC50 [µM]
1,O=C1N=c2ccccc2=C1NNC(=S)NCC1CCCO1 (stereo not given),0.967
2,Cc1cccc(NC(=S)NNC2=c3ccccc3=NC2=O)c1,0.594
3,COc1ccc(CN=Nc2cc(C)nc3ccc(OC)cc23)c(OC)c1,6.39
4,Cc1cc(C)c2c(c1)=C(NNC(=S)NCC1CCCO1)C(=O)N=2 (stereo not given),0.509
5,O=C1Nc2ccc([N+](=O)[O-])cc2C1=NNC(=S)NCC1CCCO1 (stereo not given),0.664
6,NC(=S)NN=C1C(=O)N(CCCl)c2ccccc21,10.8
7,COC(=O)c1ccc(CN2C(=O)C(=NNC(N)=S)c3ccccc32)o1,> 20
8,CCOC(=O)C1C(COC(=O)c2ncc(Cl)c(Cl)c2Cl)=NC(=O)NC1C (stereo not given),9.23
9,COCCNC(=S)NN=C1C(=O)Nc2ccc([N+](=O)[O-])cc21 [1-(2-methoxyethyl)-3-[(5-nitro-2-oxoindol-3-yl)amino]thiourea],1.52
10,O=C1Nc2ccccc2/C1=N/NC(=S)Nc1ccc(O)cc1 [1-(4-hydroxyphenyl)-3-[(2-oxidanylideneindol-3-yl)amino]thiourea],0.763
11,CCCCNC(=S)N/N=C1\C(=O)Nc2ccccc21 [1-butyl-3-[(2-oxidanylideneindol-3-yl)amino]thiourea],5.96
12,CCNC(=S)NNC1=c2cc(C(C)C)ccc2=NC1=O [1-ethyl-3-[(2-oxo-5-propan-2-yl-3-indolyl)amino]thiourea],2.49
13,"CCN(CC)CCOC(=O)c1ccc(N=CC(C#N)c2nc(-c3ccc4c(c3)OCO4)cs2)cc1 (stereo not given) [2-(diethylamino)ethyl 4-[[(Z)-2-[4-(1,3-benzodioxol-5-yl)-1,3-thiazol-2-yl]-2-cyano-ethenyl]amino]benzoate]",5.07
14,"CCN(CC)CCOC(=O)c1ccc(N=CC(C#N)c2nc(-c3cc4ccccc4oc3=O)cs2)cc1 (stereo not given) [2-(diethylamino)ethyl 4-[[(Z)-2-cyano-2-[4-(2-oxochromen-3-yl)-1,3-thiazol-2-yl]ethenyl]amino]benzoate]",3.5
15,CCN(CC)CCOC(=O)c1ccc(N=CC(C#N)c2nc(-c3ccc(OC)cc3)cs2)cc1 (stereo not given) [4-[[(Z)-2-cyano-2-[4-(4-methoxyphenyl)-2-thiazolyl]ethenyl]amino]benzoic acid 2-(diethylamino)ethyl ester],4.3
16,"CC(=O)N1N=C(C2C(=O)N(C)C(=O)N(C)C2=O)CC1c1ccccc1 (stereo not given) [5-(1-acetyl-5-phenylpyrazolidin-3-ylidene)-1,3-dimethyl-1,3-diazinane-2,4,6-trione]",19.5
17,"N=C(N)C1=CC(=O)/C(=C/C=c2ccc(=C(N)N)cc2)C=C1 [(4E)-4-[2-[4-[bis(azanyl)methylidene]cyclohexa-2,5-dien-1-ylidene]ethylidene]-3-oxidanylidene-cyclohexa-1,5-diene-1-carboximidamide;2-oxidanylethanesulfonic acid]",2.8
18,C#CCOCCOCCOCCNc1nc(N2CCN(C(=O)CCCCCCCCCCNC(=O)[C@H](CCCCN)n3cc(CCCC(=O)O)nn3)CC2)nc(N2CCN(C(=O)CCCCCCCCCCNC(=O)[C@H](CCCN=C(N)N)n3cc(C[C@@H](C)CC)nn3)CC2)n1 [EK-IR],3.61
19,C#CCOCCOCCOCCNc1nc(N2CCN(C(=O)CCCCCCCCCCNC(=O)[C@H]([C@@H](C)CC)n3cc(CCCCN=C(N)N)nn3)CC2)nc(N2CCN(C(=O)CCCCCCCCCCNC(=O)[C@@H]([C@H](C)O)n3cc(C)nn3)CC2)n1 [GT-RI],4.63
20,C#CCOCCOCCOCCNc1nc(N2CCN(C(=O)CCCCCCCCCCNC(=O)Cn3cc(CCCCCN)nn3)CC2)nc(N2CCN(C(=O)CCCCCCCCCCNC(=O)[C@H]([C@@H](C)CC)n3cc(CCCCN=C(N)N)nn3)CC2)n1 [KG-RI],2.11
21,C#CCOCCOCCOCCNc1nc(N2CCN(C(=O)CCCCCCCCCCNC(=O)Cn3cc(CCCCCN)nn3)CC2)nc(N2CCN(C(=O)CCCCCCCCCCNC(=O)Cn3cc(C[C@@H](C)O)nn3)CC2)n1 [KG-TG],7.41
22,C#CCOCCOCCOCCNc1nc(N2CCN(C(=O)CCCCCCCCCCNC(=O)[C@H]([C@@H](C)CC)n3cc(CCCCCN)nn3)CC2)nc(N2CCN(C(=O)CCCCCCCCCCNC(=O)[C@H](CCCCN)n3cc(CCCC(=O)O)nn3)CC2)n1 [KI-EK],6.08
23,C#CCOCCOCCOCCNc1nc(N2CCN(C(=O)CCCCCCCCCCNC(=O)[C@@H](CCC(=O)O)n3cc(CCCCCN)nn3)CC2)nc(N2CCN(C(=O)CCCCCCCCCCNC(=O)[C@H]([C@@H](C)CC)n3cc(CCCCCN)nn3)CC2)n1 [KI-KE],6.61
24,C#CCOCCOCCOCCNc1nc(N2CCN(C(=O)[C@H](Cc3cc4ccccc4[nH]3)n3cc([C@@H](N)CC(C)C)nn3)CC2)nc(N2CCN(C(=O)[C@H](Cc3cc4ccccc4[nH]3)n3cc([C@@H](N)CC(C)C)nn3)CC2)n1 [LW-LW],6.4
25,CCOC(=O)c1c(C)c2c(n1C)CCCC2N=O (stereo not given) [MLS000026784],8.75

row,Compound,IC50 [µM]
1,C#CCOCCOCCOCCNc1nc(N2CCN(C(=O)[C@H](CCCCN)n3cc([C@@H](N)C(C)CC)nn3)CC2)nc(N2CCN(C(=O)[C@H](Cc3cc4ccccc4[nH]3)n3cc([C@@H](N)C(C)CC)nn3)CC2)n1 (stereo not given in full) [MLS000562580],2.68
2,C#CCOCCOCCOCCNc1nc(N2CCN(C(=O)[C@H](Cc3cc4ccccc4[nH]3)n3cc([C@@H](N)C(C)CC)nn3)CC2)nc(N2CCN(C(=O)[C@H](CCCCN)n3cc([C@@H](N)CC(C)C)nn3)CC2)n1 (stereo not given in full) [MLS000562581],2.07
3,COCCNC(=S)NNC1=c2cc(C)cc(C)c2=NC1=O [MLS000774564],0.561
4,CCOC(=O)C1C(COC(=O)c2cc(OC)c(OC)c(OC)c2)=NC(=O)NC1C (stereo not given) [MLS001161811],8.55
5,Oc1c(Cc2cnc[nH]2)[nH]c(=S)n1-c1ccccc1 [MLS001163810],4
6,C#CCOCCOCCOCCNc1nc(N2CCN(C(=O)CCCCCCCCCCNC(=O)Cn3cc(C[C@@H](C)O)nn3)CC2)nc(N2CCN(C(=O)CCCCCCCCCCNC(=O)[C@H](CCCN=C(N)N)n3cc(C[C@@H](C)CC)nn3)CC2)n1 [MLS002153601],4.86
7,C#CCOCCOCCOCCNc1nc(N2CCN(C(=O)CCCCCCCCCCNC(=O)[C@H](CCCCN)n3cc(CCO)nn3)CC2)nc(N2CCN(C(=O)CCCCCCCCCCNC(=O)[C@H](CCCCN)n3cc(CCCC(=O)O)nn3)CC2)n1 [MLS002153608],10.4
8,C#CCOCCOCCOCCNc1nc(N2CCN(C(=O)CCCCCCCCCCNC(=O)[C@H](CCCCN)n3cc(C)nn3)CC2)nc(N2CCN(C(=O)CCCCCCCCCCNC(=O)[C@H](CCCN=C(N)N)n3cc(C[C@@H](C)CC)nn3)CC2)n1 [MLS002153614],2.18
9,C#CCOCCOCCOCCNc1nc(N2CCN(C(=O)CCCCCCCCCCNC(=O)[C@H](CCCCN)n3cc(C)nn3)CC2)nc(N2CCN(C(=O)CCCCCCCCCCNC(=O)[C@@H]([C@H](C)CC)n3cc(CCCCCN)nn3)CC2)n1 [MLS002153655],2.23
10,C#CCOCCOCCOCCNc1nc(N2CCN(C(=O)CCCCCCCCCCNC(=O)Cn3cc(CCCCCN)nn3)CC2)nc(N2CCN(C(=O)CCCCCCCCCCNC(=O)[C@H](CO)n3cc(CCCSC)nn3)CC2)n1 [MLS002153667],4.08
11,C#CCOCCOCCOCCNc1nc(N2CCN(C(=O)CCCCCCCCCCNC(=O)[C@H](CCCCN)n3cc(CCO)nn3)CC2)nc(N2CCN(C(=O)CCCCCCCCCCNC(=O)[C@@H]([C@H](C)O)n3cc(C)nn3)CC2)n1 [MLS002153685],7.24
12,C#CCOCCOCCOCCNc1nc(N2CCN(C(=O)CCCCCCCCCCNC(=O)Cn3cc(CCCCCN)nn3)CC2)nc(N2CCN(C(=O)CCCCCCCCCCNC(=O)[C@H]([C@@H](C)CC)n3cc(CCCCCN)nn3)CC2)n1 [MLS002153714],2.29
13,C#CCOCCOCCOCCNc1nc(N2CCN(C(=O)CCCCCCCCCCNC(=O)[C@H]([C@@H](C)CC)n3cc(CCCCCN)nn3)CC2)nc(N2CCN(C(=O)CCCCCCCCCCNC(=O)[C@H]([C@@H](C)CC)n3cc(CCCCN=C(N)N)nn3)CC2)n1 [MLS002153718],2.19
14,C#CCOCCOCCOCCNc1nc(N2CCN(C(=O)CCCCCCCCCCNC(=O)[C@@H](CCSC)n3cc(CCO)nn3)CC2)nc(N2CCN(C(=O)CCCCCCCCCCNC(=O)[C@H](CCC(=O)O)n3cc(CCCCCN)nn3)CC2)n1 [MLS002153730],16
15,C#CCOCCOCCOCCNc1nc(N2CCN(C(=O)CCCCCCCCCCNC(=O)[C@@H](CCSC)n3cc(CCO)nn3)CC2)nc(N2CCN(C(=O)CCCCCCCCCCNC(=O)[C@H](CO)n3cc(CCCCCN)nn3)CC2)n1 [MLS002153734],4.24
16,C#CCOCCOCCOCCNc1nc(N2CCN(C(=O)[C@H](CCCN=C(N)N)n3cc(C(N)[C@H](C)CC)nn3)CC2)nc(N2CCN(C(=O)[C@H](CCCN=C(N)N)n3cc(C(N)[C@@H](C)CC)nn3)CC2)n1 (stereo not given in full) [MLS002473475],19.3
17,COc1ccc2nc(C)cc(N=NCc3ccc(F)cc3)c2c1 [N-[(4-fluorophenyl)methylideneamino]-6-methoxy-2-methyl-4-quinolinamine],10.1
18,C#CCOCCOCCOCCNc1nc(N2CCN(C(=O)CCCCCCCCCCNC(=O)[C@H]([C@@H](C)CC)n3cc(CCCCN=C(N)N)nn3)CC2)nc(N2CCN(C(=O)CCCCCCCCCCNC(=O)[C@H](CCCCN)n3cc(C)nn3)CC2)n1 [RI-GK],1.68
19,CC1=CC(C)(C)N2C(=O)/C(=N\NC(N)=S)c3cccc1c32 [SMR000218901],4.79
20,CC(C)NC(=S)NNC1=c2cc(C(C)C)ccc2=NC1=O [SMR000242097],3.56
21,COc1cc(C2c3c(-c4cccs4)n[nH]c3OC(=N)C2C#N)cc(OC)c1O (stereo not given) [SMR000275523],1.47
22,CCOc1ccc(-c2csc(NC(=O)c3cccc(-n4c(O)ccc4O)c3)n2)cc1 [SMR000319795],> 20
23,C#CCOCCOCCOCCNc1nc(N2CCN(C(=O)[C@H](CCCCN)n3cc([C@@H](N)C(C)CC)nn3)CC2)nc(N2CCN(C(=O)[C@H](Cc3cc4ccccc4[nH]3)n3cc([C@@H](N)CC(C)C)nn3)CC2)n1 (stereo not given in full) [SMR000391070],2.07
24,C#CCOCCOCCOCCNc1nc(N2CCN(C(=O)[C@H](CCCCN)n3cc([C@@H](N)C(C)CC)nn3)CC2)nc(N2CCN(C(=O)[C@H](Cc3ccc(O)cc3)n3cc([C@@H](N)C(C)CC)nn3)CC2)n1 (stereo not given in full) [SMR000391090],10.2
25,C#CCOCCOCCOCCNc1nc(N2CCN(C(=O)[C@H](CCCCN)n3cc([C@@H](N)CC(C)C)nn3)CC2)nc(N2CCN(C(=O)[C@H](Cc3cc4ccccc4[nH]3)n3cc([C@@H](N)Cc4ccc(O)cc4)nn3)CC2)n1 [SMR000391143],2.78
